These results are taken from publication PMC9435431, “Novel chemical entities inhibiting Mycobacterium tuberculosis growth identified by phenotypic high-throughput screening” (Scientific Reports, 2022).

In brackets after ≈: the same amount, converted by molar mass. Entries after “also recorded” stand apart in the source; their conditions may differ. Read-outs that look alike come from different tables or passages of the source. Where only a bound is given, the exact number is not on record here.

The test system of one series is M. tuberculosis H37Rv. The series can be described thus: microbe, parasite or virus in culture. In kind it is cell-based. As to conditions: Mycobacterium tuberculosis, 120 h.
Series [1] deals with wild-type M. tuberculosis. Description: microbe, parasite or virus in culture. It is filed as cell-based, Mycobacterium tuberculosis. As to conditions: for IC90 / MIC: Mycobacterium tuberculosis.
Series [2] in a line: in vitro. It is filed as cell-based. As to conditions: human; for IC20: concentration for 20% inhibition of HepG2 cells, 72 h, n = 2. As for the experimental part:
HepG2 cells were seeded at 2000 cells per well in 384-well, black, clear bottom PDL coated plates in MEM medium supplemented with 10% FBS, 2 mM L-glutamine, 1 mM sodium pyruvate and incubated overnight at 37C, 5% CO2. Compounds were added and plates incubated for 72 h. Cell viability was measured using the CyQUANT® reagent and imaging on a ViewLux™ ultraHTS Microplate Imager. The IC20 and IC50 were calculated from dose response curves.

Another series concerns M. tuberculosis. The series can be described thus: microbe, parasite or virus in culture. In kind it is cell-based. As to conditions: Mycobacterium tuberculosis, read-out: MIC on solid medium.
Series [3] is described as follows: in vitro. It is filed as in vitro ADME, human. Particulars: for CLint scaled at 0.5 µM: human, microsomes. As for the experimental part: (§1) Compounds (0.5 µM) were incubated with 0.25 mg/mL liver microsomal proteins at pH 7.4 at 37 °C. Reactions were initiated with […] and samples taken at 0, 5, 10, 15, 20 and 30 min. The reaction was stopped by addition of 95% ACN/5% MeOH containing an internal standard. Samples were combined in compound groups of six pre-sorted by mono molecular weight and analyzed by LC/MS/MS. The peak area ratios (analyte peak area/IS peak area) were converted to % remaining using the area ratio at time 0 as 100%. The. half-life (T ½) and intrinsic clearance (mCLint) were calculated.

Series [4] is described as follows: in vitro. It is filed as in vitro ADME. As to conditions: mouse, microsomes, pH 7.4. As for the experimental part:
as §1

The nature of series [5]: Critical aggregation concentration. In kind it is physicochemical.
The conditions of series [6]: mouse, in vivo.
A short description of a further series: in vivo. As to conditions: female, Balb/c, mouse; for AUC: po, 30 mg/kg.
Series [7] can be described thus: in vitro. Particulars: PAMPA.
[8] abbreviates: Table 5, read-out: Wild-type MIC.

On to `CCC1(N2CCC(c3ccccc3)CC2)CCCCC1` [Molecule 4PP-1, 1-(1-Ethyl-cyclohexyl)-4-phenyl-piperidine], for which the inhibition at 20 µM in the series with M. tuberculosis H37Rv (read-out: % Inhibition Run 1) turned out to be 100%; in the series on M. tuberculosis H37Rv (read-out: % Inhibition Run 2), 99%. Also, the 90% effect level in series [1] (IC90) was put at 6.3 µM. Further, the MIC in [1] (120 h, read-out: MIC) turned out to be 6.3 ± 2.7 µM (≈ 1.71 µg/mL); in [1] (setting [8]), 6.3 µM (≈ 1.71 µg/mL); in series [1] (read-out: MIC), 6.3 µM (≈ 1.71 µg/mL); in series [1] (read-out: MTB MIC), 6.3 µM (≈ 1.71 µg/mL). In “in vitro [2]”, this molecule yielded an IC20 of over 80 µM.
`O=C(O)C(F)(F)F.c1cc(C2CCN(CC3CCCCC3)CC2)ccn1` [Molecule 4PP-32, 4-[1-(Cyclohexylmethyl)-4-piperidyl]pyridine, 2,2,2-trifluoroacetic acid salt]: the “anti-tubercular activity (in words)” value in series [1] was “inactive”. Besides, the MIC in [1] (120 h, read-out: MIC) is over 20 µM; in the series on M. tuberculosis, 1.6 µM.
As to `COc1ccc(CCNC(=O)C2(c3ccccc3)CCC2)cc1Br` [PCB-1, N-(3-bromo-4-methoxyphenethyl)-1-phenylcyclobutane-1-carboxamide], the inhibition at 20 µM in the series with M. tuberculosis H37Rv (read-out: % Inhibition Run 1) and in the series on M. tuberculosis H37Rv (read-out: % Inhibition Run 2) was 100% in each case. Also, the MIC in series [1] (120 h, read-out: MIC) was found to be 6.9 ± 1.7 µM (≈ 2.68 µg/mL); in series [1] (read-out: MIC), 6.9 µM (≈ 2.68 µg/mL); in series [1] (read-out: MTB MIC), 6.9 µM (≈ 2.68 µg/mL). The same molecule returned an IC20 at 72 h in the series “in vitro [2]” of 33 µM. The molecule also showed a CLint scaled at 0.5 µM in “in vitro [3]” (pH 7.4, human Clint) of 1330 mL/min/kg.
For the molecule `O=C(NCCc1cc(Br)c(O)c(Br)c1)C1(c2ccccc2)CCC1` [PCB-2, N-(3,5-dibromo-4-hydroxyphenethyl)-1-phenylcyclobutane-1-carboxamide], the MIC is 3.4 ± 0.6 µM (≈ 1.54 µg/mL) in series [1] (120 h, read-out: MIC) and 3.4 µM (≈ 1.54 µg/mL) in [1] (read-out: MIC). Besides, the CLint scaled at 0.5 µM is 427 mL/min/kg in “in vitro [3]” (pH 7.4, human Clint); 593 mL/min/kg in the series “in vitro [3]” (pH 7.4, in vitro human unbound microsomal clearance Clint,u); 1920 mL/min/kg in “in vitro [4]”. Moreover, in series [5], the critical aggregation concentration was 3.3 µM. Besides, the “Oral AUC” value in series [6] (female, Balb/c, po, 30 mg/kg) was found to be 58 ng·h/mL. Further, in the series “in vivo”, the AUC was 58 ng·h/mL. The Papp in “in vitro [7]” came to 87 ×10⁻⁶ cm/s.
As to `O=C(NCCc1cccc(Br)c1)C1(c2ccc(F)cc2)CCC1` [PCB-19, N-(3-bromophenethyl)-1-(4-fluorophenyl)cyclobutane-1-carboxamide], the MIC came out at 2.3 ± 0.7 µM (≈ 0.865 µg/mL) in [1] (120 h, read-out: MIC); 2.3 µM (≈ 0.865 µg/mL) in series [1] (setting [8]); 0.63 µM (≈ 0.237 µg/mL) with M. tuberculosis. Besides, the “microsomal clearance / stability (in words)” value in the series “in vitro [3]” (human microsomes) is on record as “very poor microsomal stability”. This molecule also had a CLint scaled at 0.5 µM in “in vitro [3]” (pH 7.4, human Clint) of 3920 mL/min/kg.
With `O=C(NCCc1cccc(Br)c1)C1(c2ccccc2Br)CCC1` [PCB-21, N-(3-bromophenethyl)-1-(2-bromophenyl)cyclobutane-1-carboxamide], the MIC in series [1] (120 h, read-out: MIC) is 2 ± 0.5 µM (≈ 0.874 µg/mL); in series [1] (setting [8]), 2 µM (≈ 0.874 µg/mL); in the series on M. tuberculosis, 1.25 µM (≈ 0.546 µg/mL). In the series “in vitro [3]” (pH 7.4, human Clint), this molecule had an intrinsic clearance (CLint scaled) at 0.5 µM of 13600 mL/min/kg.
`O=C(NCCc1cc(Br)c(O)c(Br)c1)C1(c2ccc(F)cc2)CCC1` [PCB-31, N-(3,5-dibromo-4-hydroxyphenethyl)-1-(4-fluorophenyl)cyclobutane-1-carboxamide]: the “anti-tubercular activity (in words)” value in [1] was “good anti-TB activity; also recorded: sub-micromolar”. For the same molecule, the MIC in series [1] (120 h, read-out: MIC) came out at 0.94 ± 0.23 µM (≈ 0.443 µg/mL). In addition, the CLint scaled at 0.5 µM in “in vitro [3]” (pH 7.4, human Clint) is 128 mL/min/kg; in the series “in vitro [4]”, 527 mL/min/kg. The “absorption (in words)” value in series [6] is “solubility-limited absorption”. Besides, in the series “in vivo” (iv), the half-life is 12 min. This molecule showed an AUC in “in vivo” of 259 ng·h/mL.
Consider `C=CCc1c(C)nc(-c2ccccn2)nc1O` [PDPO-1], for which the results for the inhibition at 20 µM in the series with M. tuberculosis H37Rv (read-out: % Inhibition Run 1) and with M. tuberculosis H37Rv (read-out: % Inhibition Run 2) were 99% and 96%, respectively. Also, the MIC in [1] (read-out: MTB MIC) is 23 µM (≈ 5.23 µg/mL). This molecule had an IC20 at 72 h in “in vitro [2]” of 2.8 µM.
The like results for `Cc1nc2ccccn2c1-c1ccn(Cc2ccccc2)n1` [PPP-1] were, in that order, 100%, 98%, 38 µM (≈ 11 µg/mL) and 4.3 µM.
Take `CC(C)c1ccc(-n2nnn(C(=O)N(C)C3CCOCC3)c2=O)cc1Cl` [PTZ-3]: the inhibition at 20 µM in the series on M. tuberculosis H37Rv (read-out: % Inhibition Run 1) amounted to 96%; with M. tuberculosis H37Rv (read-out: % Inhibition Run 2), 6%. For the same molecule, the MIC in series [1] (read-out: MTB MIC) worked out at 5.2 µM (≈ 1.98 µg/mL). The 20% effect level in “in vitro [2]” (IC20) was put at 26 µM.
On to `Cc1ccc(-c2nnc(C)c(N3CCCC3)n2)cc1` [PYT], for which the results for the inhibition at 20 µM in the series on M. tuberculosis H37Rv (read-out: % Inhibition Run 1) and in the series on M. tuberculosis H37Rv (read-out: % Inhibition Run 2) were 100% and 98%, respectively. The molecule further showed an IC90 in [1] of 11 µM. Besides, the MIC in [1] (read-out: MTB MIC) came to 11 µM (≈ 2.8 µg/mL). In the series “in vitro [2]”, the IC20 at 72 h turned out to be 23 µM.
For the molecule `CN(Cc1cn2c3ccccc3n(C)c2n1)C12CC3CC(CC(C3)C1)C2` [PZI], the inhibition at 20 µM with M. tuberculosis H37Rv (read-out: % Inhibition Run 1) and with M. tuberculosis H37Rv (read-out: % Inhibition Run 2) was 98% throughout. The MIC in series [1] (read-out: MTB MIC) turned out to be 9.3 µM (≈ 3.24 µg/mL). In the series “in vitro [2]”, this molecule registered an IC20 at 72 h of 15 µM.
For the molecule `Cc1cc(NC2CCCCC2)nc(-n2nc(C)cc2C)n1` [PZP-3], the inhibition at 20 µM with M. tuberculosis H37Rv (read-out: % Inhibition Run 1) and in the series on M. tuberculosis H37Rv (read-out: % Inhibition Run 2) was 98% in each case. The molecule also had an IC90 in [1] of 4.5 µM. For the same molecule, the MIC in series [1] (read-out: MTB MIC) stood at 4.5 µM (≈ 1.28 µg/mL). The IC20 at 72 h in “in vitro [2]” is 47 µM.
For `CC(=O)n1nccc1-c1sc(-c2cccs2)nc1C` [TPT], the inhibition at 20 µM in the series on M. tuberculosis H37Rv (read-out: % Inhibition Run 1) and in the series with M. tuberculosis H37Rv (read-out: % Inhibition Run 2) was 99% each time. This molecule also registered an IC90 in series [1] of 7.1 µM. Also, in [1] (read-out: MTB MIC), the MIC was found to be 7.1 µM (≈ 2.05 µg/mL). This molecule showed an IC20 at 72 h in the series “in vitro [2]” of over 80 µM.
Turning to `CCOC(=O)c1oc2c(c1C)-c1nc(C)sc1CC2` [TZF], the inhibition at 20 µM with M. tuberculosis H37Rv (read-out: % Inhibition Run 1) and with M. tuberculosis H37Rv (read-out: % Inhibition Run 2) was 99% each time. Also, the MIC in [1] (read-out: MTB MIC) was found to be 18 µM (≈ 4.99 µg/mL). Moreover, the IC20 at 72 h in the series “in vitro [2]” is over 80 µM.

One may read the inhibition as the share of the control response that was lost under treatment. The IC90 is the concentration needed for an effect of 90%. Low readings indicate greater potency, high ones weaker potency. As usually defined, the IC20 is the concentration at which the effect reaches the 20% level. A higher IC20 goes with a need for much substance. As usually defined, the CLint scaled is a measure of how fast metabolising enzymes remove a compound, apart from limits set by blood flow. A higher CLint scaled goes with faster metabolism. For orientation: AUC means the area under the concentration-time curve, a measure of exposure. Higher therefore signals more exposure. The term Papp denotes the rate of passage across a membrane or cell layer, normalised by area and donor concentration. Low readings indicate poor permeation, high ones ready permeation. The term half-life denotes how long it takes for the measured level to halve. Read a high half-life as slow loss.
